Reference: patent US8017386B2, “Divinyl ether synthase gene and protein, and uses thereof” (priority 2000, dated 2011)

What was measured:
[1] = molecular target: T1, CYP74D1 (Solanum lycopersicum, UniProt Q9FPM6)
T1 sequence (Q9FPM6 10-478 limits assumed): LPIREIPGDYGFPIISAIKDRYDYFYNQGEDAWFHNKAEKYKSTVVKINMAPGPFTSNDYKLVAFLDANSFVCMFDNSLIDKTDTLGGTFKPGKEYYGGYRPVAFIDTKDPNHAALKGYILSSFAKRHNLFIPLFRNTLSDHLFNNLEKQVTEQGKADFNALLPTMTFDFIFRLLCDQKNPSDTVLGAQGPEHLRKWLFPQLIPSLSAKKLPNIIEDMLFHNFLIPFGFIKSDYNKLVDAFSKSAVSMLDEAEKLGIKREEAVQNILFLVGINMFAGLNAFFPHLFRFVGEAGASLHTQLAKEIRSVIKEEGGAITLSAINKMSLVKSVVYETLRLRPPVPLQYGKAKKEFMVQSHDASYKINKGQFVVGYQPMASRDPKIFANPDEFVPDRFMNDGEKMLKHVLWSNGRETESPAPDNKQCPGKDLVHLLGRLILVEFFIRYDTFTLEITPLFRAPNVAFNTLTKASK

[2] = molecular target: T2, CYP74D1 (Solanum lycopersicum, UniProt Q9FPM6); assay: Kinetic assays with affinity purified CYP74D-6H (decrease in A234); conditions: for estimated turnover rate (kcat): purified CYP74D-6H, assuming the total protein content to be active; for Km: read-out: apparent Km, recombinant DES (summary in description)
T2 sequence (Q9FPM6 whole entry): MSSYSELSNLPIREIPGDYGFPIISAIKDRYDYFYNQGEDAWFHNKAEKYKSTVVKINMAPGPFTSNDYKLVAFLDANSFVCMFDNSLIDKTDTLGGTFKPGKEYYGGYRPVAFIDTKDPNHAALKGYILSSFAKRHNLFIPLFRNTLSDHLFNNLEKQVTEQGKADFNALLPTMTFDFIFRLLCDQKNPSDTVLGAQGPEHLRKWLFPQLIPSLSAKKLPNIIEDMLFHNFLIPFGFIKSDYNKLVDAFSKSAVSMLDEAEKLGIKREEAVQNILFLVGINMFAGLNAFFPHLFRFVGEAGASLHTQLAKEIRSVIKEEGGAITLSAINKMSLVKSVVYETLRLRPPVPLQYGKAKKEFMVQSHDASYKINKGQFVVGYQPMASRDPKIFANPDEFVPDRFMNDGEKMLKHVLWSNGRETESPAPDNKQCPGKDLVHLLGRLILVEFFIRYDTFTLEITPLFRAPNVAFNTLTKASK

[3] = molecular target: T2, CYP74D1; remark: listed apart in the source

SMILES | metabolism by extracts containing 6H-CYP74D (in words) [1] | estimated turnover rate (kcat) [2] | Km [2] | metabolized at % of the rate observed for 9-HPOD [3]
CCCCC[C@@H](/C=C/C=C\CCCCCCCC(=O)O)OO [13-HPOD, 13(S)-hydroperoxy-9(Z),11(E)-octadecadienoic acid] | poor substrates | – | – | –
CC/C=C\C/C=C\C=C\[C@H](CCCCCCCC(=O)O)OO [9-HPOT, 9(S)-hydroperoxy-10(E),12(Z),15(Z)-octadecatrienoic acid] | efficiently metabolized | 500 s⁻¹ | ~48 µM | –
CCCCC/C=C\C=C\[C@H](CCCCCCCC(=O)O)OO [9-HPOD, 9(S)-hydroperoxy-10(E),12(Z)-octadecadienoic acid] | efficiently metabolized | 890 s⁻¹ | ~67 µM | –
CC/C=C\C[C@@H](/C=C/C=C\CCCCCCCC(=O)O)OO [13-HPOT, 13(S)-hydroperoxy-9(Z),11(E),15(Z)-octadecatrienoic acid] | poor substrates | – | – | < 5%
